According to the NIST ThermoML archive (doi:10.1021/je060271a):
Values joined by “and” are separate entries in the source; they are usually repeats but may differ in a detail not shown here. Identical values can stand only once.

Conditions: 343.15 K, Liquid, Vibrating tube method

CCCCCCC(=O)OCC(COC(=O)CCCCCC)(COC(=O)CCCCCC)COC(=O)CCCCCC [pentaerythritol tetraheptanoate]
Conditions | mass density
143.4 kPa | 940.7 kg/m3
144.1 kPa | 940.6 kg/m3
144.3 kPa | 940.8 kg/m3
144.8 kPa | 940.7 kg/m3 and 940.6 kg/m3
145 kPa | 940.6 kg/m3 and 940.7 kg/m3
145.7 kPa | 940.7 kg/m3
145.9 kPa | 940.6 kg/m3
146.2 kPa | 940.6 kg/m3
146.4 kPa | 940.7 kg/m3
146.9 kPa | 940.6 kg/m3
147.3 kPa | 940.6 kg/m3
147.6 kPa | 940.7 kg/m3
148.1 kPa | 940.8 kg/m3
148.5 kPa | 940.7 kg/m3
148.8 kPa | 940.6 kg/m3
149 kPa | 940.7 kg/m3
149.2 kPa | 940.7 kg/m3
149.7 kPa | 940.6 kg/m3
149.9 kPa | 940.6 kg/m3
150 kPa | 940.7 kg/m3
150.2 kPa | 940.7 kg/m3
150.4 kPa | 940.8 kg/m3
151.1 kPa | 940.6 kg/m3
151.3 kPa | 940.7 kg/m3
151.8 kPa | 940.7 kg/m3 and 940.6 kg/m3
151.9 kPa | 940.6 kg/m3
152.5 kPa | 940.7 kg/m3
153 kPa | 940.8 kg/m3
153.2 kPa | 940.8 kg/m3
153.7 kPa | 940.8 kg/m3
153.9 kPa | 940.7 kg/m3
154.2 kPa | 940.7 kg/m3
154.9 kPa | 940.7 kg/m3
155.1 kPa | 940.7 kg/m3
155.6 kPa | 940.7 kg/m3
155.8 kPa | 940.7 kg/m3
155.9 kPa | 940.8 kg/m3
156.3 kPa | 940.7 kg/m3
156.8 kPa | 940.7 kg/m3
157 kPa | 940.7 kg/m3
157.5 kPa | 940.7 kg/m3
157.9 kPa | 940.7 kg/m3
158.2 kPa | 940.7 kg/m3
159.1 kPa | 940.7 kg/m3
159.2 kPa | 940.8 kg/m3
159.6 kPa | 940.7 kg/m3
159.9 kPa | 940.7 kg/m3
160.6 kPa | 940.7 kg/m3
161.3 kPa | 940.7 kg/m3
161.5 kPa | 940.6 kg/m3
162.2 kPa | 940.6 kg/m3
162.6 kPa | 940.6 kg/m3
163.3 kPa | 940.8 kg/m3
163.4 kPa | 940.7 kg/m3
163.9 kPa | 940.7 kg/m3
164.5 kPa | 940.7 kg/m3
164.8 kPa | 940.7 kg/m3
165.2 kPa | 940.7 kg/m3
165.7 kPa | 940.7 kg/m3
166.2 kPa | 940.8 kg/m3
166.7 kPa | 940.6 kg/m3
167.3 kPa | 940.6 kg/m3
167.9 kPa | 940.6 kg/m3
168.3 kPa | 940.8 kg/m3
168.6 kPa | 940.7 kg/m3
169.2 kPa | 940.7 kg/m3
169.9 kPa | 940.6 kg/m3
170.4 kPa | 940.8 kg/m3
170.9 kPa | 940.6 kg/m3
171.2 kPa | 940.7 kg/m3
171.8 kPa | 940.6 kg/m3
172.3 kPa | 940.6 kg/m3
172.8 kPa | 940.7 kg/m3
173 kPa | 940.7 kg/m3
173.2 kPa | 940.7 kg/m3
173.7 kPa | 940.7 kg/m3
174.4 kPa | 940.6 kg/m3
174.9 kPa | 940.7 kg/m3
175.2 kPa | 940.6 kg/m3
175.9 kPa | 940.7 kg/m3
176.5 kPa | 940.8 kg/m3
177.1 kPa | 940.7 kg/m3
178 kPa | 940.7 kg/m3
178.4 kPa | 940.6 kg/m3
178.9 kPa | 940.7 kg/m3
179.6 kPa | 940.7 kg/m3
180.8 kPa | 940.7 kg/m3
181.5 kPa | 940.6 kg/m3
182.2 kPa | 940.7 kg/m3
182.7 kPa | 940.8 kg/m3
183.2 kPa | 940.7 kg/m3
184.1 kPa | 940.6 kg/m3
184.8 kPa | 940.8 kg/m3
185.3 kPa | 940.6 kg/m3
185.8 kPa | 940.8 kg/m3
186.7 kPa | 940.7 kg/m3
187.1 kPa | 940.6 kg/m3
188.1 kPa | 940.7 kg/m3
188.8 kPa | 940.6 kg/m3
189.3 kPa | 940.7 kg/m3
190 kPa | 940.8 kg/m3
191.1 kPa | 940.6 kg/m3
191.7 kPa | 940.6 kg/m3
192.3 kPa | 940.7 kg/m3
193.1 kPa | 940.6 kg/m3
193.6 kPa | 940.6 kg/m3
194.3 kPa | 940.7 kg/m3
195.4 kPa | 940.8 kg/m3
196.1 kPa | 940.8 kg/m3
197.1 kPa | 940.7 kg/m3
197.7 kPa | 940.8 kg/m3
198.3 kPa | 940.8 kg/m3
199.4 kPa | 940.6 kg/m3
200.6 kPa | 940.7 kg/m3
201.5 kPa | 940.8 kg/m3
202.5 kPa | 940.8 kg/m3
203.4 kPa | 940.7 kg/m3
204.1 kPa | 940.7 kg/m3
205.3 kPa | 940.7 kg/m3
206 kPa | 940.7 kg/m3
206.9 kPa | 940.9 kg/m3
207.7 kPa | 940.8 kg/m3
208.6 kPa | 940.7 kg/m3
210 kPa | 940.7 kg/m3
211 kPa | 940.6 kg/m3
211.7 kPa | 940.7 kg/m3
212.8 kPa | 940.9 kg/m3
213.6 kPa | 940.7 kg/m3
214.8 kPa | 940.7 kg/m3
215.9 kPa | 940.7 kg/m3
217.1 kPa | 940.8 kg/m3
218 kPa | 940.8 kg/m3
219 kPa | 940.7 kg/m3
220.2 kPa | 940.8 kg/m3
222.7 kPa | 940.7 kg/m3
224.1 kPa | 940.8 kg/m3
225.1 kPa | 940.7 kg/m3
226.1 kPa | 940.7 kg/m3
227 kPa | 940.8 kg/m3
228.6 kPa | 940.8 kg/m3
229.8 kPa | 940.8 kg/m3
231 kPa | 940.7 kg/m3
232.2 kPa | 940.7 kg/m3
233.4 kPa | 940.6 kg/m3
234.5 kPa | 940.7 kg/m3
236.2 kPa | 940.7 kg/m3
237.9 kPa | 940.8 kg/m3
239.3 kPa | 940.7 kg/m3
241.1 kPa | 940.7 kg/m3
242 kPa | 940.7 kg/m3
243.9 kPa | 940.6 kg/m3
244.9 kPa | 940.7 kg/m3
246.3 kPa | 940.8 kg/m3
248 kPa | 940.6 kg/m3
250 kPa | 940.7 kg/m3
251 kPa | 940.7 kg/m3
252.9 kPa | 940.8 kg/m3
254.6 kPa | 940.7 kg/m3
255.8 kPa | 940.8 kg/m3
257.9 kPa | 940.7 kg/m3
259.5 kPa | 940.8 kg/m3
260.5 kPa | 940.8 kg/m3
262.3 kPa | 940.8 kg/m3
263.7 kPa | 940.7 kg/m3
265.9 kPa | 940.8 kg/m3
268 kPa | 940.8 kg/m3
269.6 kPa | 940.6 kg/m3
271.8 kPa | 940.8 kg/m3
273.9 kPa | 940.8 kg/m3
276.2 kPa | 940.7 kg/m3
277.7 kPa | 940.7 kg/m3
279.5 kPa | 940.8 kg/m3
281.6 kPa | 940.7 kg/m3
284.2 kPa | 940.8 kg/m3
287.1 kPa | 940.8 kg/m3
288.7 kPa | 940.8 kg/m3
291.3 kPa | 940.8 kg/m3
293.5 kPa | 940.9 kg/m3
295.8 kPa | 940.7 kg/m3
297.9 kPa | 940.8 kg/m3
302.9 kPa | 940.9 kg/m3
305.2 kPa | 940.8 kg/m3
308.3 kPa | 940.8 kg/m3
310.8 kPa | 940.8 kg/m3
314.1 kPa | 940.9 kg/m3
316.5 kPa | 940.9 kg/m3
319.1 kPa | 940.8 kg/m3
321.4 kPa | 940.8 kg/m3
324.7 kPa | 940.8 kg/m3
327.3 kPa | 940.7 kg/m3
330.2 kPa | 940.7 kg/m3
333.5 kPa | 940.9 kg/m3
336 kPa | 940.7 kg/m3
340 kPa | 940.7 kg/m3
343.3 kPa | 940.9 kg/m3
346.2 kPa | 940.8 kg/m3
349.4 kPa | 940.8 kg/m3
353.2 kPa | 941 kg/m3
356.5 kPa | 940.7 kg/m3
359.8 kPa | 940.9 kg/m3
364.3 kPa | 940.9 kg/m3
367.4 kPa | 940.8 kg/m3
371.8 kPa | 940.8 kg/m3
375.3 kPa | 940.8 kg/m3
378.9 kPa | 940.8 kg/m3
382.9 kPa | 941 kg/m3
387.8 kPa | 940.9 kg/m3
391.6 kPa | 940.9 kg/m3
395.9 kPa | 940.9 kg/m3
400.5 kPa | 940.9 kg/m3
405 kPa | 940.9 kg/m3
410.2 kPa | 941 kg/m3
414.7 kPa | 941 kg/m3
419.2 kPa | 940.9 kg/m3
423.8 kPa | 940.9 kg/m3
429.5 kPa | 940.8 kg/m3
434.5 kPa | 940.9 kg/m3
440.6 kPa | 940.9 kg/m3
445.7 kPa | 940.9 kg/m3
451.2 kPa | 941 kg/m3
457.5 kPa | 941 kg/m3
463.2 kPa | 940.9 kg/m3
468.9 kPa | 940.8 kg/m3
